Source: patent US4731109A, “Herbicidal 2-haloacetanilides” (Monsanto Company, priority 1982, dated 1988)
Where two headings read alike, the source gives them in different places.

Tests used:
Assay type in all cases: in vivo
soybeans = experiment: Greenhouse pre-emergence GR15/GR85 selectivity test
Procedure, shortened: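 Active ingredient mixed into cover soil over seeded pans (pre-emergence soil incorporation), initial overhead irrigation equal to 0.64 cm rainfall, then subirrigation. Scored about 2-3 weeks after seeding; GR15 (crop) and GR85 (weed) rates in kg/ha, selectivity factor = crop GR15 / weed GR85.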

cotton = experiment: Field pre-emergence selectivity test; details: Gossypium hirsutum, 1008 h, 6 weeks, read-out: Percent Inhibition; for inhibition at 560 g/ha: 0.56 Kg/Ha; for inhibition at 1120 g/ha: 1.12 Kg/Ha; for inhibition at 2240 g/ha: 2.24 Kg/Ha; for inhibition at 4480 g/ha: 4.48 Kg/Ha
Source text: (§1) The seeds were planted in a fine seedbed of silt loam of intermediate moisture. The seeds were planted at a depth of two inches (5.08 cm). First rainfall (0.2"; 0.51 cm) occurred the day following treatment, the second rain (0.25"; […]) two days after treatment; cumulative rainfall 22 days after treatment was 1.8" (4.57 cm). Observations were made 6 weeks after treatment.

Lambsquarters = experiment: Field pre-emergence selectivity test; details: Chenopodium album, 1008 h, S.A., 6 weeks, read-out: Percent Inhibition
Source text: as §1

Sweet Corn = experiment: Field pre-emergence selectivity test; details: Zea mays, 1008 h, 6 weeks, read-out: Percent Inhibition; for inhibition at 560 g/ha: 0.56 Kg/Ha; for inhibition at 1120 g/ha: 1.12 Kg/Ha; for inhibition at 2240 g/ha: 2.24 Kg/Ha
Source text: as §1

peanuts = experiment: Field pre-emergence selectivity test; details: 1008 h, 6 weeks, read-out: Percent Inhibition; for inhibition at 560 g/ha: 0.56 Kg/Ha; for inhibition at 1120 g/ha: 1.12 Kg/Ha; for inhibition at 2240 g/ha: 2.24 Kg/Ha; for inhibition at 4480 g/ha: 4.48 Kg/Ha
Source text: as §1

wild proso millet = experiment: Field pre-emergence selectivity test; details: 1008 h, 6 weeks, read-out: Percent Inhibition; for inhibition at 560 g/ha: 0.56 Kg/Ha; for inhibition at 1120 g/ha: 1.12 Kg/Ha; for inhibition at 2240 g/ha: 2.24 Kg/Ha; for inhibition at 4480 g/ha: 4.48 Kg/Ha
Procedure: (§2) The compound of Examples 1 and 2 was also tested in the field to determine its pre-emergence selectivity against foxtail (spp), barnyardgrass, wild proso millet, smartweed, lambsquarters and pigweed in a plurality of crops; the data (representing three replicate runs) are shown in Table VII for both surface application (S.A.) and soil incorporation (PPI, i.e., preplant incorporation) of the herbicide. The seeds were planted in a fine seedbed of silt loam of intermediate moisture. The seeds were planted at a depth of two inches (5.08 cm). First rainfall (0.2"; 0.51 cm) occurred the day following treatment, the second rain (0.25"; […]) two days after treatment; cumulative rainfall 22 days after treatment was 1.8" (4.57 cm). Observations were made 6 weeks after treatment.

Bush Bean = experiment: Field pre-emergence selectivity test; details: 1008 h, 6 weeks, read-out: Percent Inhibition; for inhibition at 560 g/ha: 0.56 Kg/Ha; for inhibition at 1120 g/ha: 1.12 Kg/Ha; for inhibition at 2240 g/ha: 2.24 Kg/Ha; for inhibition at 4480 g/ha: 4.48 Kg/Ha
Procedure: as §2

rape = experiment: Field pre-emergence selectivity test; details: 1008 h, 6 weeks, read-out: Percent Inhibition; for inhibition at 560 g/ha: 0.56 Kg/Ha; for inhibition at 1120 g/ha: 1.12 Kg/Ha; for inhibition at 2240 g/ha: 2.24 Kg/Ha; for inhibition at 4480 g/ha: 4.48 Kg/Ha
Procedure: as §2

snap beans = experiment: Greenhouse pre-emergence GR15/GR85 selectivity test; details: Table VI
Source text: A good grade of top soil is placed in aluminum pans and compacted to a depth of three-eighths to one-half inch from the top of the pan. On the top of the soil is placed a number of seeds or vegetative propagules of various plant species. The soil required to level fill the pans after seeding or adding vegetative propagules is weighed into a pan. The soil and a known amount of the active ingredient applied in a solvent or as a wettable powder suspension are thoroughly mixed, and used to cover the prepared pans. After treatment, the pans are given an initial overhead irrigation of eater, equivalent to one-fourth inch (0.64 cm) rainfall, then watered by subirrigation as need to give adequate moisture for germination and growth. As an alternative procedure, the overhead irrigation may be omitted. Observations are made about 2-3 weeks after seeding and treatment.
In the discussion and tables of data below, reference is made to herbicide application rates symbolized as "GR15 " and "GR85 "; these rates are given in kilograms per hectare (kg/ha) which are convertible into pounds per acre (lbs/A) by dividing the kg/ha rate by 1.12.
A further guide to the effectiveness of a chemical as a selective herbicide is the "selectivity factor" ("SF") for a herbicide in given crops and weeds. […]

[1] = test system: annual grasses, annual broadleafs and perennials; experiment: Other tests, preemergence selective control or suppression of weeds

Question: For `CCOCN(C(=O)CCl)c1c(C)cccc1C(F)(F)F` [Example 1, N-(ethoxymethyl)-2'-trifluoromethyl-6'-methyl-2-chloroacetanilide], which “GR15 Rate” value (soybeans; Table XIV) is on record?
Answer: > 1.1 Kg/Ha

Question: And the GR15 (soybeans; soybeans/purple nutsedge)?
Answer: 1.1 kg/ha

Question: And the inhibition at 560 g/ha (cotton; P.P.I.)?
Answer: 13%

Question: And the inhibition at 1120 g/ha (cotton; P.P.I.)?
Answer: 32%

Question: What about the inhibition at 2240 g/ha (cotton; P.P.I.) of the same compound?
Answer: 37%

Question: And the inhibition at 4480 g/ha (cotton; P.P.I.)?
Answer: 82%

Question: What about the inhibition at 560 g/ha (cotton; S.A.) of the same compound?
Answer: 0%

Question: What about the inhibition at 1120 g/ha (cotton; S.A.) of the same compound?
Answer: 13%

Question: What about the inhibition at 2240 g/ha (cotton; S.A.) of the same compound?
Answer: 20%

Question: What about the inhibition at 4480 g/ha (cotton; S.A.) of the same compound?
Answer: 25%

Question: What about the inhibition at 560 g/ha (Lambsquarters; 0.56 Kg/Ha) of the same compound?
Answer: 0%

Question: What about the inhibition at 1120 g/ha (Lambsquarters; 1.12 Kg/Ha) of the same compound?
Answer: 13%

Question: And the inhibition at 2240 g/ha (Lambsquarters; 2.24 Kg/Ha)?
Answer: 40%

Question: And the inhibition at 4480 g/ha (Lambsquarters; 4.48 Kg/Ha)?
Answer: 67%

Question: What about the inhibition at 560 g/ha (Sweet Corn; P.P.I.) of the same compound?
Answer: 0%

Question: And the inhibition at 1120 g/ha (Sweet Corn; P.P.I.)?
Answer: 3%

Question: What about the inhibition at 2240 g/ha (Sweet Corn; P.P.I.) of the same compound?
Answer: 27%

Question: And the inhibition at 4480 g/ha (Sweet Corn; P.P.I., 4.48 Kg/Ha)?
Answer: 40%

Question: And the inhibition at 560 g/ha (Sweet Corn; S.A.)?
Answer: 0%

Question: What about the inhibition at 1120 g/ha (Sweet Corn; S.A.) of the same compound?
Answer: 0%

Question: What about the inhibition at 2240 g/ha (Sweet Corn; S.A.) of the same compound?
Answer: 7%

Question: What about the inhibition at 560 g/ha (peanuts; P.P.I.) of the same compound?
Answer: 17%

Question: What about the inhibition at 1120 g/ha (peanuts; P.P.I.) of the same compound?
Answer: 13%

Question: What about the inhibition at 2240 g/ha (peanuts; P.P.I.) of the same compound?
Answer: 15%

Question: What about the inhibition at 4480 g/ha (peanuts; P.P.I.) of the same compound?
Answer: 28%

Question: What about the inhibition at 560 g/ha (peanuts; S.A.) of the same compound?
Answer: 0%

Question: And the inhibition at 1120 g/ha (peanuts; S.A.)?
Answer: 0%

Question: And the inhibition at 2240 g/ha (peanuts; S.A.)?
Answer: 8%

Question: What about the inhibition at 4480 g/ha (peanuts; S.A.) of the same compound?
Answer: 22%

Question: And the inhibition at 560 g/ha (wild proso millet; P.P.I.)?
Answer: 23%

Question: What about the inhibition at 1120 g/ha (wild proso millet; P.P.I.) of the same compound?
Answer: 58%

Question: What about the inhibition at 2240 g/ha (wild proso millet; P.P.I.) of the same compound?
Answer: 80%

Question: What about the inhibition at 4480 g/ha (wild proso millet; P.P.I.) of the same compound?
Answer: 85%

Question: And the inhibition at 560 g/ha (wild proso millet; S.A.)?
Answer: 63%

Question: What about the inhibition at 1120 g/ha (wild proso millet; S.A.) of the same compound?
Answer: 83%

Question: What about the inhibition at 2240 g/ha (wild proso millet; S.A.) of the same compound?
Answer: 95%

Question: What about the inhibition at 4480 g/ha (wild proso millet; S.A.) of the same compound?
Answer: 97%

Question: And the inhibition at 560 g/ha (Bush Bean; P.P.I.)?
Answer: 23%

Question: What about the inhibition at 1120 g/ha (Bush Bean; P.P.I.) of the same compound?
Answer: 10%

Question: And the inhibition at 2240 g/ha (Bush Bean; P.P.I.)?
Answer: 37%

Question: What about the inhibition at 4480 g/ha (Bush Bean; P.P.I.) of the same compound?
Answer: 43%

Question: What about the inhibition at 560 g/ha (Bush Bean; S.A.) of the same compound?
Answer: 0%

Question: And the inhibition at 1120 g/ha (Bush Bean; S.A.)?
Answer: 8%

Question: What about the inhibition at 2240 g/ha (Bush Bean; S.A.) of the same compound?
Answer: 20%

Question: What about the inhibition at 4480 g/ha (Bush Bean; S.A.) of the same compound?
Answer: 32%

Question: What about the inhibition at 560 g/ha (rape; P.P.I.) of the same compound?
Answer: 0%

Question: And the inhibition at 1120 g/ha (rape; P.P.I.)?
Answer: 0%

Question: And the inhibition at 2240 g/ha (rape; P.P.I.)?
Answer: 15%

Question: And the inhibition at 4480 g/ha (rape; P.P.I.)?
Answer: 40%

Question: What about the inhibition at 560 g/ha (rape; S.A.) of the same compound?
Answer: 0%

Question: What about the inhibition at 1120 g/ha (rape; S.A.) of the same compound?
Answer: 0%

Question: What about the inhibition at 2240 g/ha (rape; S.A.) of the same compound?
Answer: 5%

Question: What about the inhibition at 4480 g/ha (rape; S.A.) of the same compound?
Answer: 33%

Question: What about the “GR15 Rate” value (snap beans) of the same compound?
Answer: 0.90 Kg/Ha

Question: What about the “preemergence selective control or suppression of weeds” value ([1]; in soybeans, corn, cotton, peanuts, beans, potatoes, tree fruits, turf grasses) of the same compound?
Answer: effectiveness for premergence selective control or suppression

Question: What about the “competition from seedling johnsongrass, Texas panicum, sandbur, shattercane, Florida beggarweed, lambsquarters, ragweed, prickley sida and smartweed” value ([1]; in vivo) of the same compound?
Answer: reduces competition
